Literature values, collected in patent publication US20030236285A1, “Stabilized pharmaceutical compositions containing benzimidazole compounds” (priority 2002, published 2003).

Conditions: pH higher than 7

- rate of degradation: reduced to negligible
Structure (SMILES): Cc1c(OCC(F)(F)F)ccnc1C[S+]([O-])c1nc2ccccc2[nH]1 (stereo not shown) [lansoprazole]
